Measured values: patent publication US20260274876A1, “3-PYRROLIDINE-INDOLE DIMERS AS SEROTONERGIC AGENTS USEFUL FOR THE TREATMENT OF DISORDERS RELATED THERETO” (MINDSET PHARMA INC., priority 2022, published 2026)

Tests used:
[1] = Liver microsomes stability, human; conditions: for Remaining Percentage (%) after 60 min, Human, With cofactors / Remaining Percentage (%) after 60 min, Human, Without cofactors: human liver microsomes; for half-life at 2 μM / microsomal CLint at 2 μM / metabolic stability in liver microsomes (statement): human; for half-life at 2 μM / microsomal CLint at 2 μM: pooled human liver microsomes; for metabolic stability in liver microsomes (statement): rat and mouse liver microsomes
Protocol: 40 μL of 10 mM NADPH solution was added to each well. The final concentration of NADPH was 1 mM. The negative control samples were prepared by replacing NADPH with 40 μL of ultra-pure H2O. Samples were prepared in duplicate. Negative controls were prepared in singlet.
This study was performed in duplicate.
LC/MS analysis was performed for all samples from this study using a Shimadzu liquid chromatograph separation system equipped with degasser DGU-20A5R; solvent delivery unit LC-30AD; system controller SIL-30AC; column oven CTO-30A; CTC Analytics HTC PAL System. Mass spectrometric analysis was performed using a Triple Quad™ 5500 instrument.
All calculations were carried out using Microsoft Excel.
All calculations were carried out using Microsoft Excel. Peak areas were determined from extracted ion chromatograms.

[2] = Intestinal mucosal permeation using Caco-2 cell monolayers; conditions: human; for Papp A→B at 2 h, 5 µM / Papp B→A at 2 h, 5 µM / efflux ratio at 2 h, 5 μM: Caco-2, pH 7.4
Protocol: Plate was returned to incubator.
Vortexed for 5 minutes. […] Incubated at 37° C. for 30 minutes.

human 5-HT1A receptor = target: T1, human 5-HT1A receptor (Homo sapiens, UniProt P08908); experiment: Human 5-HT1A functional FLIPR assay (agonist mode); type: cell-based; parameters: expressed in transfected cells; conditions: h5-HT1A, curve fitting with activation (%) @ 10 mM with RFU (footnote)
T1 sequence (P08908 1-422): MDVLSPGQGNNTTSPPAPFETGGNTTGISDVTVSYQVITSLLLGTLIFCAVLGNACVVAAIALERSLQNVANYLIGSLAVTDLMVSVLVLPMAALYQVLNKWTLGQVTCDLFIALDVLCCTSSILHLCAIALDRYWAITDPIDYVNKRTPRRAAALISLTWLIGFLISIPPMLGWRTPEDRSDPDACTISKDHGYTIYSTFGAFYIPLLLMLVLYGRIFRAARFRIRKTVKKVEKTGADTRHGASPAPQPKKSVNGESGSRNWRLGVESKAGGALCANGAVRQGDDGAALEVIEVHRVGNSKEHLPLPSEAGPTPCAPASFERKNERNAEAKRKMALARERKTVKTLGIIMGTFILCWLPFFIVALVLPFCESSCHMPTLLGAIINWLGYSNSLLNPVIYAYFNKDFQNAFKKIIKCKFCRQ
Protocol: The potential excitatory effects of compounds targeting on 5-hydroxytryptamine receptor 1A (5-HT1A) under agonist mode was assessed.
HTR1A&Gα15-CHO cells were cultured in DMEM/F12 medium containing 10% dialyzed FBS, 1×penicillin-streptomycin and 600 μg/mL Hygromycin B. The cells were passaged about three times a week, maintained between ~30% to ~90% confluence.
• 1. The cell culture medium (DMEM/F12 medium containing 10% dialyzed FBS, 1×penicillin-streptomycin and 600 μg/mL Hygromycin B), TrypLE™ Express and DPBS was warmed to R.T. in advance. • 2. The cell culture medium was removed from flask. Washed cells with DPBS. • 3. 1 mL TrypLE™ Express was added to the flask, mixed well by gentle shaking and cells were incubated at 37° C. for a few minutes. • 4. The cells were checked for morphological change under microscope, the digestion was stopped by adding 2 mL cell culture medium to the flask when most of cells turned to round. • 5. The cell suspension was transferred into a 15 mL centrifuge tube, and then centrifuged at 1,200 rpm for 5 minutes. • 6. The supernatant was removed. The cell pellet were resuspended with 2 mL cell culture medium. • 7. The cell density were counted using cell counter. Only cells with >85% viability were used for the assay. • 8. Cells were diluted to 4×10^5/mL with cell culture medium. • 9. 30 μL/well cell suspensions were added into a 384-well cell plate (The cell density was 12,000 cells/well). • 10. The cell plate was incubated overnight at 37° C., 5% (v/v) CO2.
• 1. On the day of experiments, culture medium was removed from the cell plate. • 2. 10 μL of assay buffer (20 mM HEPES, in 1×HBSS, pH 7.4) was added to each well of the cell plate. • 3. 2×dye solution was prepared following the manufacture's instruction of the FLIPR® Calcium 6 assay kit: • i. The dye was diluted with assay buffer. • ii. probenecid was added to the final concentration of 5 mM. • iii. Vortexed vigorously for I-2 minutes, adjust pH to 7.4. • 4. 10 μL of 2×dye solution was added to each well of the cell plate. • 5. The cell plate was placed on plate shaker, followed by shaking at 600 rpm for 2 minutes. • 6. The plate was incubated at 37° C. for 2 hours followed by an additional 15-minute incubation at 25° C.
• 1. Serotonin was prepared to the concentration of 10 mM with DMSO, 3-folds serial dilutions were performed with DMSO. • 2. Prepare the test compound to the concentration of 10 mM with DMSO, preform 3-folds serial dilutions with DMSO. • 3. The compounds were added to a 384-well compound source plate. • 4. 90 nL/well of serial diluted compounds were transferred from source plate to a 384-well compound plate by using an Echo. • 5. 30 μL/well of assay buffer was added to the compound plate. • 6. The plate was mixed on-plate shaker for 2 minutes.
• 1. After the cells incubate with dye solution, the cell plate, compound plate containing 3×compounds and FLIPR tips were placed into FLIPR. • 2. 10 μL of 3×compounds were transferred from the compound plate to the cell plate by FLIPR. • 3. The plate was read for 160 sec with 1 sec interval to obtain the data of agonist mode.
• 1. The normalized fluorescence reading (RFU) was calculated as shown below, wherein Fmax and Fmin stand for maximum and minimum of calcium signal during defined time window:
[formula] • 2. EC50 was calculated by fitting RFU against log of compound concentrations with Hill equation using XLfit.

[3] = Caco-2, pH 7.4, Percentage recovery (%) A→B, Caco-2, A→B
[4] = Caco-2, pH 7.4, Percentage recovery (%) B→A, Caco-2, B→A

SMILES | Remaining Percentage (%) after 60 min, Human, With cofactors [1] [%] | Remaining Percentage (%) after 60 min, Human, Without cofactors [1] [%] | half-life at 2 μM [1] [min] | microsomal CLint at 2 μM [1] [µL/min/mg] | metabolic stability in liver microsomes (statement) [1] | Papp A→B at 2 h, 5 µM [2] [×10⁻⁶ cm/s] | Papp B→A at 2 h, 5 µM [2] [×10⁻⁶ cm/s] | efflux ratio at 2 h, 5 μM [2] | recovery at 2 h, 5 μM [2, 3] [%] | recovery at 2 h, 5 μM [2, 4] [%] | RFU@10 μM (human 5-HT1A receptor) [RFU] | t1/2 Human ([1]; human liver microsomes with NADPH, 2 μM) [min]
[2H]C([2H])(c1c[nH]c2cccc(OC(=O)CCCC(=O)Oc3cccc4[nH]cc(C([2H])([2H])[C@H]5CCCN5C([2H])([2H])[2H])c34)c12)[C@H]1CCCN1C([2H])([2H])[2H] [Compound I-22, bis(3-(((R)-1-(methyl-d3)pyrrolidin-2-yl)methyl-d2)-1H-indol-4-yl) glutarate] | 0 | 1.38 | 4.67 | 297 | rapidly metabolized | < 0.25 | 1.01 | > 4.08 | < 126 | 101 | 130 | 
CN1CCC[C@@H]1Cc1c[nH]c2cccc(O)c12 [Compound 10, (R)-3-((1-methylpyrrolidin-2-yl)methyl)-1H-indol-4-ol] |  |  |  |  |  | 23.2 | 18.8 | 0.81 | 82.7 | 92 | 425 | 
[2H]C([2H])(c1c[nH]c2cccc(O)c12)[C@H]1CCCN1C([2H])([2H])[2H] [Compound 13, (R)-3-((1-(methyl-d3)pyrrolidin-2-yl)methyl-d2)-1H-indol-4-ol] |  |  |  |  |  |  |  |  |  |  | 307 | 
CN(C)CCc1c[nH]c2cccc(O)c12 [Psilocin, 4-hydroxy-N,N-dimethyltryptamine, reference compound] | 70.16 |  |  |  |  | 24.6 | 18.7 |  | 100 | 102 | 140 | 117.32
CN1CCC[C@@H]1Cc1c[nH]c2cccc(OC(=O)CCCC(=O)Oc3cccc4[nH]cc(C[C@H]5CCCN5C)c34)c12 [Compound I-13, Bis(3-(((R)-1-methylpyrrolidin-2-yl)methyl)-1H-indol-4-yl) glutarate] | 0 | 0 | < 4.51 | > 307 | rapidly metabolized | 0.63 | 4.1 | 6.5 | 94.7 | 110 | 87 | 
